Experiments:
[1] = tested on: A549 alveolar epithelial cells infected with R. delemar spores; assay: Measurement of host cell endocytosis of R. delemar by A549 cells (Uvitex differential fluorescence); type: cell-based, human; settings: for endocytosis of R. delemar spores: A549 cells pretreated 1 h with 25 μM Gefitinib or 25 μg/ml Cetuximab, 3 h infection, vs vehicle or IgG1 control antibody
Procedure: Measurement of host cell endocytosis. 12-mm glass coverslips were seeded with A549 alveolar epithelial cells. […] For controls, host cells will be incubated with DMSO (the solvent used to reconstitute the inhibitor) or 25 μg/ml mouse IgG antibody in parallel. Host cells were then infected with 2×10^5 R. delemar spores. After incubation for 3 h, cells were fixed in 3% paraformaldehyde and stained for 1 h with 1% Uvitex, which specifically binds to chitin in the fungal cell wall. After washing with PBS, coverslips were mounted on a glass slide with a drop of ProLong Gold anti-fade reagent (Molecular Probes) and sealed. The total number of cell-associated organisms (i.e. fungi adhering to the monolayer) per high-powered field were determined by phase-contrast microscopy. The same field will be examined by epifluorescence microscopy, and the number of brightly fluorescent, uninternalized fungi were determined. The number of endocytosed organisms was calculated by subtracting the number of fluorescent fungi from the total number of visible fungi. At least 400 organisms were counted per treatment group in at least 15 different fields per coverslip. Experiments were performed in duplicate or triplicate on at least two separate days.
12-mm glass coverslips in 12 well dishes will be seeded with A549 alveolar epithelial cells. Cells were then pre-treated 1 h with inhibitors. For controls, host cells were incubated with the appropriate amount of diluent used to reconstitute the inhibitor in parallel. Host cells were then infected with 2×10^6 Rdelemar. After incubation for 3 h, cells were fixed in 3% paraformaldehyde and stained for 1 h with 1% Uvitex, which specifically binds to chitin in the fungal cell wall. After washing with PBS, coverslips were mounted on a glass slide with a drop of ProLong Gold anti-fade reagent (Molecular Probes) and sealed. The total number of cell-associated organisms (i.e., fungi adhering to the monolayer) per high-powered field was determined by phase-contrast microscopy. The same exact field was examined by epifluorescence microscopy, and the number of brightly fluorescent, uninternalized fungi will be determined. The number of endocytosed organisms is calculated by subtracting the number of fluorescent organisms from the total number of visible organisms. At least 400 organisms were counted in at least 15 different fields per coverslip. Experiments were performed in duplicate on separate days. Data will be expressed as median f interquartile range.

[2] = tested on: R. delemar; assay: Tissue fungal burden of lungs and brains by qPCR in neutropenic mice; type: in vivo; settings: 10 mg/kg starting 4 h post infection through Day +3, organs collected Day +4, qPCR
Procedure: Murine models of Mucormycosis. Male ICR mice (20-25 g from Envigo) were immunosuppresed by cyclophosphamide (200 mg/kg administered intraperotenually [i.p]) and cortisone acetate (500 mg/kg, adminstered subcutaneously) given on days −2, +3, and +9 relative to infection. […] To control for bacterial infection, immunosuppressed mice received 50 mg/L Baytrial (enrofloxacin: Bayer, Leverkusen, Germany) ad libitum on Day −3 thorough Day 0, after which Baytril was replaced with daily ceftazidime (5 mg/mouse) treatment adminstered subcutaneously through day+13 days post infection. […] On Day +4, mice were sacrificed and lungs and brains, representing primary and secondary target organs (Luo G, Gebremariam T, Lee H, French S W, Wiederhold N P, Patterson T F, Filler S G, Ibrahim A S. 2013. Efficacy of liposomal amphotericin B and posaconazole in intratracheal models of murine mucormycosis. Antimicrobial agents and chemotherapy 57:3340-7), were collected and processed for tissue fungal burden by qPCR (Ibrahim A S, Bowman J C, Avanessian V, Brown K, Spellberg B, Edwards J E, Jr., Douglas C M. 2005. Caspofungin inhibits Rhizopus oryzae 1,3-beta-D-glucan synthase, lowers burden in brain measured by quantitative PCR, and improves survival at a low but not a high dose during murine disseminated zygomycosis. […]
Statistical Analyses. […] Data were expressed as median±interquartile range. […]

[3] = tested on: A549 cells infected with M. circinelloides; assay: M. circinelloides-induced damage of A549 cells (LDH assay); type: cell-based, human; settings: 25 μM Mifepristone overnight and/or 25 μM Gefitinib 1 h, 24 h infection (FIG. 14)
[4] = tested on: A549 cells infected with L. corymbifera; assay: L. corymbifera-induced damage of A549 cells (LDH assay); type: cell-based, human; settings: 25 μM Mifepristone overnight and/or 25 μM Gefitinib 1 h, 24 h infection (FIG. 14)
[5] = tested on: A549 cells infected with C. bertholletiae; assay: C. bertholletiae-induced damage of A549 cells (LDH assay); type: cell-based, human; settings: 25 μM Mifepristone overnight and/or 25 μM Gefitinib 1 h, 24 h infection (FIG. 14)
[6] = tested on: PGR; assay: PGR translocation to the nucleus during R. delemar infection (confocal microscopy); type: cell-based, human; settings: A549 cells pretreated with Gefitinib 1 h, R. delemar infection 2 h (FIG. 16)
Procedure: Translocation of host PGR was visualized using the Zeiss LSM Duo confocal microscopy system. 12-mm glass coverslips in 12 well dishes were seeded with A549 alveolar epithelial cells and infected with 2×10^5 R. delemar or R. oryzae that have been incubated in F12K+10% FBS at 37° C. for 2 h. After a 2 h incubation at 37° C., cells were washed with HBSS and fixed with 3% paraformaldehyde. Cells were incubated with anti-PGR (Aviva MS-196-P1, recognizes B) for 1 h or overnight in 0.1% BSA for 1 hour. Coverslips were washed and counterstained with Alexa Fluor 546-labeled goat anti-rabbit or Alexa Fluor 488-goat anti-mouse. After washing, the coverslip will be mounted on a glass slide with a drop of ProLong Gold antifade reagent (Molecular Probes) and viewed by confocal fluorescent microscopy.

## COc1cc2ncnc(Nc3ccc(F)c(Cl)c3)c2cc1OCCCN1CCOCC1 [Gefitinib]
[1]
  endocytosis of R. delemar spores: significantly reduced
[1]; listed as Gefinitib
  endocytosis of R. delemar spores: did not completely block
[1]; spore preparations pre-treated with drug prior to the infection
  endocytosis after pre-treatment of R. delemar spore preparations: did not reduce
[2]
  reduction in fungal burden in organs (lungs and brains) compared to placebo-treated mice: ~1 log
[3]
  M. circinelloides-induced damage: significantly decreased
[4]
  L. corymbifera-induced damage: significantly decreased
[5]
  C. bertholletiae-induced damage: significantly decreased
[6]
  translocation of PGR from the cytosol to the nucleus: reduced

Reference: patent US20210284742A1, “METHODS OF TREATING OR PREVENTING MUCORMYCOSIS” (University of Maryland, Baltimore, priority 2018, published 2021)
